Here are results for two compounds from patent US12370175B2, “Glucocorticoid receptor modulators to treat pancreatic cancer” (Corcept Therapeutics, Inc., priority 2016, dated 2025).

“Also recorded” adds a separate entry of the source.

In series [1] the test system is Human Pancreatic carcinoma cells (MIA-PaCa-2). Description: MIA-PaCa-2 xenograft tumor growth in mice, SGRM combined with paclitaxel. Type of series: in vivo, mice (Balbc/c nude). The settings on record: SGRM 30 mg/kg orally on day prior to and same day as paclitaxel 7.5 mg/kg intravenously Q4D; MIA-PaCa-2 subcutaneous tumors. The method, then: Human Pancreatic carcinoma cells (MIA-PaCa-2) were purchased from the American Type Cell Collection (ATCC). The cells were grown in Dulbecco's Modified Eagle's Medium (DMEM) containing 10% (v/v) heat inactivated fetal calf serum and 2.5% horse serum at 37° C. Suspensions of the cells were injected subcutaneously into the left flank of 5-6 week old immunocompromised female mice (Balbc/c nude), 3 million cells per mouse. Tumors were allowed to grow until they reach a volume of 100-200 cubic millimeters (mm^3). Mice were then grouped into four groups, ten (10) per group, and treated with compounds or vehicle as follows. Vehicle or paclitaxel was administered intravenously and SGRMs, i.e., CORT25134 and CORT125281, were administered orally. SGRMs were administered in vehicle ((10% dimethyl sulfoxide (DMSO), 0.1% Tween 80 (polyethylene glycol sorbitan monooleate (polysorbate 80)) and 89.9% hydroxypropyl methylcellulose (HPMC) (0.5%)). Group 1 was dosed with the compound vehicle (10% DMSO, 0.1% Tween 80 and 89.9% HPMC (0.5%)) daily. Group 2 was dosed with paclitaxel at 7.5 mg/kg, every four days (“Q4D”). Group 3 was dosed with both paclitaxel at 7.5 mg/kg Q4D and CORT125134 at 30 mg/kg on the day prior to and the same day as the day paclitaxel was administered. Group 4 was dosed with both paclitaxel at 7.5 mg/kg Q4D and CORT125281 at 30 mg/kg on the day prior to and the same day as the day paclitaxel was administered.
The longest (L) and shortest (S) diameters of the tumors were measured three times a week with electronic calipers and tumor volume was calculated using the formula […], where a and b are the long and short diameters of the tumor, respectively. The tumor growth data are shown in The FIGURE, in which the mean tumor volume as compared to the mean pre-dosing tumor volume for each group of mice is plotted against the number of days of tumor growth since initiation of the treatment.

For series [2], the system named is exocrine pancreatic tumor. Description: Treating a patient having pancreatic cancer with SGRM and nab-paclitaxel (Example 3, hypothetical). It is filed as in vivo, human. The following applies: 200 mg once a day for eight weeks with nab-paclitaxel 80 mg per square meter on days 1, 8, 15 of 28-day cycle; end of the treatment period. The method, then: A typical pancreatic patient may complain of upper abdomen pain that typically radiates to the back. Such a patient may experience loss of appetite, nausea and vomiting episodes, and may suffer significant weight loss. A CT scan may show the presence of a tumor in the pancreas. The presence of an exocrine pancreatic tumor may be confirmed by histological analysis. Blood ACTH level may be within the normal range for ACTH. Such a patient may be treated with CORT125134 at a dose of 200 mg once a day for eight weeks in combination with an intravenous infusion of nab-paclitaxel at a dose of 80 mg per square meter of body-surface area as an intravenous infusion over 30 minutes on days 1, 8, and 15 of every 28-day cycle. Tumor load may be monitored using enhanced MRI before, during and after such treatment. Imaging results may indicate that the size of the tumor gradually decreases; such reduction may be more than 50% at the end of the treatment period.

For series [3], the system named is metastatic adenocarcinoma of the pancreas. Description: Clinical study of CORT125134 with nab-paclitaxel in a patient with advanced pancreatic cancer (Example 4). It is filed as in vivo, human. The method, then: A patient with a diagnosis of metastatic adenocarcinoma of the pancreas participated in a clinical study evaluating the efficacy of daily administration of 100 mg of the GR antagonist CORT125134 in combination with nab-paclitaxel infusions weekly for three out of four weeks per cycle. A tumor tissue sample obtained during or prior to the patient's previous treatments was found by immunohistochemistry to have high GR expression, with 90 percent of the cells staining for GR and with a large percentage staining with high intensity. Prior to receiving this combined GR antagonist and nab-paclitaxel treatment, the patient had previously received treatment with multiple lines of chemotherapy: gemcitabine monotherapy; eight months of combination chemotherapy treatment with 5-fluorouracil, leucovorin, irinotecan and oxaliplatin (FOLFIRINOX treatment); five months of treatment with gemcitabine combined with nab-paclitaxel; and four months of combination chemotherapy treatment with 5-fluorouracil, leucovorin, and irinotecan hydrochloride (FOLFIRI treatment). These prior treatments were unsuccessful: the patient's cancer progressed despite these prior chemotherapy treatments.
This patient has so far received 8 months (8 cycles) of the combined treatment of daily 100 mg CORT125134 in combination with nab-paclitaxel infusions weekly for three out of four weeks per cycle. […] When scanned again one month later, the tumor volume was still reduced by approximately 40% compared to baseline volume, thus confirming the PR status. […] The patient remains on the treatment, and continues to tolerate the treatment well.

Regarding `Cn1ncc(S(=O)(=O)N2CC[C@H]3Cc4c(cnn4-c4ccc(F)cc4)C[C@]3(C(=O)c3cc(C(F)(F)F)ccn3)C2)n1` [CORT125281, ((4aR,8aS)-1-(4-fluorophenyl)-6-((2-methyl-2H-1,2,3-triazol-4-yl)sulfonyl)-4,4a,5,6,7,8,8a,9-octahydro-1H-pyrazolo[3,4-g]isoquinolin-4a-yl)(4-(trifluoromethyl)pyridin-2-yl)methanone], the “tumor growth (mean tumor volume compared to mean pre-dosing tumor volume), combination versus paclitaxel group” value in series [1] is “superior to the paclitaxel group in reducing tumor growth”.

As for `Cn1cc(S(=O)(=O)N2CCC3=Cc4c(cnn4-c4ccc(F)cc4)C[C@]3(C(=O)c3cc(C(F)(F)F)ccn3)C2)cn1` [CORT125134, (R)-(1-(4-fluorophenyl)-6-((1-methyl-1H-pyrazol-4-yl)sulfonyl)-4,4a,5,6,7,8-hexahydro-1H-pyrazolo[3,4-g]isoquinolin-4a-yl)(4-(trifluoromethyl)pyridin-2-yl)methanone], in series [1], the “tumor growth (mean tumor volume compared to mean pre-dosing tumor volume), combination versus paclitaxel group” value is “superior to the paclitaxel group in reducing tumor growth” and the “tumor growth reduction, comparison among treatment groups” value is reported as “most significant tumor growth reduction”. Moreover, in series [2], the “reduction of the size of the tumor (enhanced MRI)” value is recorded as “more than 50%”. Moreover, in series [3] (daily 100 mg CORT125134 with nab-paclitaxel infusions weekly three out of four weeks per cycle, 8 months (8 cycles), one patient), the clinical response result is given as “partial response (PR); also recorded: sustained partial response”. In series [3] (daily 100 mg CORT125134 with nab-paclitaxel infusions, 8 months, one patient), the “tolerability of the treatment” value is “tolerated the treatment reasonably well; also recorded: tolerated the treatment with CORT125134 and nab-paclitaxel well”. The “tumor volume reduction compared to baseline volume (CT scans)” value in series [3] (scanned again one month after the third month, daily 100 mg CORT125134 with nab-paclitaxel) is “approximately 40%”. Also, the “tumor volume reduction compared to baseline (scan)” value in series [3] (seventh month of treatment, daily 100 mg CORT125134 with nab-paclitaxel, one patient) is 40%. Further, in series [3] (third month/cycle of treatment, daily 100 mg CORT125134 with nab-paclitaxel, one patient), the “tumor volume reduction compared to start of study (CT scans)” value is reported as “approximately 40%”.
